Literature values, collected in patent US20120315265A1, “HYDROGEL-FORMING POLYMER, AND PREPARATION PROCESS AND USES THEREOF” (CHANG GUNG UNIVERSITY, priority 2011, published 2012).

Assays:
[1] = in vivo
[2] = in the anterior chamber

CC[C@@H]1C(=O)OC[C@@H]1Cc1cncn1C [pilocarpine]
duration of pupillary constriction [1]: up to 8 hour
effective therapeutic dose for IOP reduction [2]: 10 to 33 µg/mL
